Consider 7 compounds from paper PMC3816703, “Toxicity Studies on Novel N-Substituted Bicyclo-Heptan-2-Amines at NMDA Receptors” (Pharmaceuticals, 2013).

Data set [1] deals with MES (maximal electroshock)-induced neural damage. Set-up: method as in PMID 21496213. To be noted: rodents; among compounds 5a–f; cited from earlier work.
For a further data set, the system named is MDCK cells. Briefly: MTT cell viability assay on MDCK cells (24 h treatment). As to conditions: for IC50: Canis lupus familiaris, read-out: MTT test (IC50). Type of data set: cell-based, Canine. The method, then: (§1) MDCK cells were used to simulate toxicities of the novel NMDA receptor uncompetitive antagonists 5a–f on BBB in vitro [18, 19]. We treated cells with 0–500 µM concentrations of test compound or memantine for 24 h. Cell viability was assessed by the capacity of cells to reduce the MTT dye (Figure 2A,B). […] It is known, that under therapeutic conditions in patients, the serum level of memantine is about 1 µM [20]. Since the binding potencies of some of the target compounds are in same range (micromolar) as that of memantine, the 1 µM concentration was used as reference in estimating possible therapeutic indexes. […] The mean percentage of viable cells was 101 ± 0.24 (p > 0.05), 95.6 ± 0.25 (p > 0.05) for memantine and 104 ± 0.11 (p > 0.05), 105 ± 0.06 (p > 0.05) for compound 5a at 10 and 50 µM, respectively, as compared to untreated cells.
(§2) Mouse Neuro-2a (CCL-131, ATCC, Manassas, VA, USA) and MDCK (CCL-34, ATCC) were used in this study. The cells were routinely propagated using Dulbecco’s Modification of Eagle’s Medium (DMEM, ATCC) for N2a and Eagle’s Minimum Essential Medium (EMEM, ATCC) for MDCK cells, supplemented with 10% fetal bovine serum (FBS, ATCC) and 1% penicillin/ streptomycin (Gibco, Grand Island, NY, USA) in 100 cm^2 Petri-dishes (Corning, Tewksbury, MA, USA) at 37 °C in 5% CO2. For neuronal differentiation, N2a cells were cultivated in DMEM supplemented with 2% FBS in the presence of 20 µM retinoic acid (RA, Sigma, St. Louis, MO, USA).
(§3) All six compounds 5a–f were obtained as salts. Stock solutions (1 mM) were prepared in double distilled water. The treatment concentrations for the compounds and for memantine (Sigma) were 10, 50, 100, 200, 300, and 500 μM. Cells were allowed to attach overnight prior to treatment. H2O2 served as positive control. Working concentrations were prepared immediately prior to treatment by dilution with medium.
(§4) The MTT (3-(4,5-dimethylthiazole-2-yl)-2,5-diphenyltetrazolium bromide) assay is a well-documented and widely-used cell viability assay. MTT is incorporated into the cell by endocytosis and is reduced by mitochondrial enzymes in living cells to a blue colored formazan precipitate. The absorbance of dissolved formazan in the visible region correlates with the number of intact alive cells. Cells were plated at a concentration of 13,000 to 20,000 cells/well on a 96-well round-bottom plate (Fisher, Pittsburgh, PA, USA). The MTT assay (ATCC, 30-1010K) was performed according to the manufacturer’s instructions. The following determinants were optimized for each cell line: plating cell concentration; incubation time with MTT reagent, and incubation time with detergent reagent. Absorbance was recorded at 570 nm by a microtiter plate reader (VICTOR, PerkinElmer, Waltham, MA, USA). The number of surviving cells is directly proportional to the level of the formazan product generated. Each experiment was repeated on three separate occasions and results are presented as the mean absorbance ± S.E.M.
(§5) The Student’s t test was applied to evaluate the significance of differences among each group. A p value of 0.05 or less was considered to be significant. Error bars in the graphs are expressed as S.E.M. with experiments performed in triplicate. IC50 values were calculated according to the SoftMax Pro GxP analytical software. Standard Curves were plotted using the OD Mean Value (Y) versus Concentration (X) and applying a 4-Parameter fit with a variable weight source curve fit option of 1/Y^2. Results are presented as mean ± S.E.M.
A general note: Tetrazolium dyes change colour on reduction, which living cells bring about.

Assay in data set [2]: as above
Format: cell-based, Canine. As to conditions: dog, MDCK cells, 24 h, as compared to untreated cells, read-out: mean percentage of viable cells. The method, then:
as §1, §2, §3, §4, §5

The next data set relates to N2a cells. Briefly: MTT cell viability assay on N2a cells (24 h treatment). Format: cell-based, Mouse. As to conditions: Mus musculus, read-out: MTT test (IC50). The method, then:
(§6) To examine neuronal cell toxicity, N2a cells were exposed to each of compounds 5a–f or memantine for 24 h at 0–500 µM concentrations, and cell viability was measured by MTT assay. In the present experiments, increasing the concentration of antagonists increased the toxicity of both test compounds and memantine in dose dependent manner (Figure 4A,B). […] No significant reduction in cell concentration was observed using phase contrast microscopy (Figure 5). The mean percentage of viable cells was 94.6 ± 0.29 (p > 0.05), 91.6 ± 0.26 (p > 0.05) for memantine and 93 ± 0.35 (p > 0.05), 77 ± 0.35 (p > 0.05) for compound 5a at 10 and 50 µM, respectively, as compared to untreated cells.
as §2, §3, §4, §5

Assay in data set [3]: as above
Format: cell-based, Mouse. To be noted: mouse, N2a cells, 24 h, as compared to untreated cells, read-out: mean percentage of viable cells. The method, then:
as §6, §2, §3, §4, §5

Another data set deals with NMDA receptor. Set-up: method as in PMID 21496213. To be noted: among compounds 5a–f; cited from earlier work.
For data set [4] the following is noted: patients; cited from earlier work.
The mark [5] stands for this setting: N2a cells, 24 h treatment, mean n = 3, concentration yielding 50% inhibition of mitochondrial enzyme activity.

Read-outs that look alike come from different tables or passages of the source.

With `c1ccc(C2(NCCN3CCCCC3)CC3CCC2C3)cc1` (centres unmarked) [5a, 2-phenyl-N-(2-(piperidin-1-yl)ethyl)bicyclo[2.2.1]heptan-2-amine], in data set [1], the “protection from MES (maximal electroshock)-induced neural damage” value is reported as “greatest degree of protection”. The IC50 (usually the concentration that inhibits the measured activity by half) came to 155 µM with MDCK cells (MDCK, 24 h) and 154 µM in the data set with N2a cells (N2a, 24 h). Also, the viability at 24 h, 10 µM stood at 104 ± 0.11% in data set [2] and 93 ± 0.35% in data set [3]. Moreover, the viability at 24 h, 50 µM came out at 105 ± 0.06% in data set [2] and 77 ± 0.35% in data set [3]. Further, the “affinity for NMDA receptor” value in the data set on NMDA receptor is “highest affinity”.

`Fc1ccc(C2(NCCN3CCCCC3)CC3CCC2C3)cc1` (centres unmarked) [5b]: the IC50 stood at 201 µM with MDCK cells (MDCK, 24 h) and 291 µM in the data set on N2a cells (N2a, 24 h).

Take `c1ccc(C2(NCCN3CCOCC3)CC3CCC2C3)cc1` (centres unmarked) [5c, N-(2-morpholinoethyl)-2-phenylbicyclo [2.2.1]heptan-2-amine]: the IC50 in the data set on MDCK cells (MDCK, 24 h) stood at 424 µM; in the data set on N2a cells (N2a, 24 h), 253 µM.

As for `Fc1ccc(C2(NCCN3CCOCC3)CC3CCC2C3)cc1` (centres unmarked) [5d, 2-(4-fluorophenyl)-N-(2-morpholino-ethyl)bicyclo [2.2.1]heptan-2-amine], the half-inhibitory concentration (IC50) in the data set with MDCK cells (MDCK, 24 h) was more than 1000 µM; in the data set with N2a cells (setting [5]) it was more than 1000 µM.

As for `c1ccc(C2(NCCN3CCCC3)CC3CCC2C3)cc1` (centres unmarked) [5e, 2-phenyl-N-(2-(pyrrolidin-1-yl)ethyl) bicyclo[2.2.1]heptan-2-amine], the IC50 in the data set with MDCK cells (MDCK, 24 h) came to 313 µM; in the data set with N2a cells (N2a, 24 h), 165 µM.

As to `Fc1ccc(C2(NCCN3CCCC3)CC3CCC2C3)cc1` (centres unmarked) [5f], the IC50 in the data set on MDCK cells (MDCK, 24 h) is 305 µM; in the data set on N2a cells (setting [5]), 71 µM.

For `CC12CC3CC(C)(C1)CC(N)(C3)C2` [memantine, 1-amino-3,5-dimethyladamantine, reference compound], the half-inhibitory concentration (IC50) with MDCK cells (MDCK cells, 24 h treatment, mean n = 3, concentration yielding 50% inhibition of mitochondrial enzyme activity) stood at 197 µM; in the data set on N2a cells (setting [5]) it was 219 µM. For the same compound, the “concentration above which a concentration dependent decline in numbers of viable cells occurs” value in the data set on MDCK cells (MDCK cells, 0–500 µM, 24 h, MTT) is “higher than 100 µM”. The viability at 24 h, 10 µM was 101 ± 0.24% in data set [2] and 94.6 ± 0.29% in data set [3]. The viability at 24 h, 50 µM came to 95.6 ± 0.25% in data set [2] and 91.6 ± 0.26% in data set [3]. In addition, the “serum level under therapeutic conditions” value in data set [4] was “about 1 µM”.
